Where “and” joins values, the source holds several entries; their conditions need not be identical. Identical values can stand only once. Like-named read-outs stand apart in the source and are kept apart here.
Assays:
[1] = test system: BaF3 cells transduced with Flt3ITD/ITD, with IL3; experiment: BaF3 Flt3ITD/ITD proliferation in the presence of IL3 (Supplementary Figure 3A); details: replicates
[2] = test system: BaF3 cells expressing FLT3ITD-D835Y; experiment: BaF3 proliferation, colorimetric WST-1 assay; details: for proliferation, colorimetric assay: BaF3/FLT3 ITD-D835Y, 48 hours, replicates; for IC50: Mus musculus, BaF3, read-out: IC50, growth inhibition
[3] = test system: BaF3 cells expressing FLT3ITD; experiment: BaF3 proliferation, colorimetric WST-1 assay; assay type: cell-based, murine; details: for proliferation, colorimetric assay: BaF3/FLT3 ITD, 48 hours, replicates; for IC50: Mus musculus
[4] = concentration 0.016 (unit not given)
[5] = concentration 0.08 (unit not given)
[6] = concentration 0.4 (unit not given)
[7] = concentration 2 (unit not given)
[8] = concentration 10 (unit not given)
[9] = concentration 50 (unit not given)
[10] = concentration 250 (unit not given)
[11] = concentration 1000 (unit not given)
[12] = concentration 5000 (unit not given)
[13] = concentration 2 (unit not given), listed as Midostuarin
[14] = concentration 10 (unit not given), listed as Midostuarin
[15] = concentration 50 (unit not given), listed as Midostuarin
[16] = concentration 250 (unit not given), listed as Midostuarin
[17] = concentration 1000 (unit not given), listed as Midostuarin
[18] = concentration 0.08 (unit not given), listed as Midostuarin
[19] = concentration 0.4 (unit not given), listed as Midostuarin

| SMILES | Supplementary Figure 3A - BaF3-ITD+IL3 proliferation [1, 4] | Supplementary Figure 3A - BaF3-ITD+IL3 proliferation [1, 5] | Supplementary Figure 3A - BaF3-ITD+IL3 proliferation [1, 6] | Supplementary Figure 3A - BaF3-ITD+IL3 proliferation [1, 7] | Supplementary Figure 3A - BaF3-ITD+IL3 proliferation [1, 8] | Supplementary Figure 3A - BaF3-ITD+IL3 proliferation [1, 9] | Supplementary Figure 3A - BaF3-ITD+IL3 proliferation [1, 10] | Supplementary Figure 3A - BaF3-ITD+IL3 proliferation [1, 11] | Supplementary Figure 3A - BaF3-ITD+IL3 proliferation [1, 12] | proliferation, colorimetric assay [2, 4] | proliferation, colorimetric assay [2, 5] | proliferation, colorimetric assay [2, 6] | proliferation, colorimetric assay [2, 7] | proliferation, colorimetric assay [2, 8] | proliferation, colorimetric assay [2, 9] | proliferation, colorimetric assay [2, 10] | proliferation, colorimetric assay [2, 11] | IC50 [2] | proliferation, colorimetric assay [3, 4] | proliferation, colorimetric assay [3, 5] | other results |
| --- | --- | --- | --- | --- | --- | --- | --- | --- | --- | --- | --- | --- | --- | --- | --- | --- | --- | --- | --- | --- | --- |
| CNC(=O)c1cc(Oc2ccc(NC(=O)Nc3ccc(Cl)c(C(F)(F)F)c3)cc2)ccn1 [Sorafenib] | 102.183 | 99.8176 | 106.455 | 107.595 and 105.229 and 115.278 | 111.02 and 105.412 and 136.419 | 101.081 and 115.196 and 123.039 | 102.541 and 117.007 and 139.808 | 122.84 and 135.916 | 77.5171 and 4.823 | 94.7245 | 78.2586 and 100.59 and 93.5618 | 71.3463 and 101.258 and 87.9764 | 114.498 and 101.128 and 64.2837 | 112.637 and 109.063 and 80.4355 | 116.564 and 100.156 and 98.1229 | 119.18 and 103.897 and 90.2769 | 83.0213 and 52.2833 | 1100 nM | 16.3815 and 107.167 and 106.617 and 105.393 | 11.5881 and 112.929 and 104.573 and 131.213 | proliferation, colorimetric assay [3, 6]: 10.6541 and 113.594 and 9.4402 and 110.22; proliferation, colorimetric assay [3, 7]: 98.6784 and 107.329 and 5.2213 and 125.689; proliferation, colorimetric assay [3, 8]: 18.373 and 31.6289 and 5.419 and 106.507; proliferation, colorimetric assay [3, 9]: 7.163 and 11.5817 and 3.098 and 23.7431; proliferation, colorimetric assay [3, 10]: 5.383 and 5.798 and 3.082 and 8.355; IC50 ([3]; BaF3 FLT3ITD, read-out: IC50, growth inhibition): 0.9 nM |
| Cc1ccc(C(=O)Nc2ccc(CN3CCN(C)CC3)c(C(F)(F)F)c2)cc1C#Cc1cnc2cccnn12 [Ponatinib] | 100.2 | 100.413 | 94.562 | 103.021 and 110.146 and 131.879 | 104.504 and 106.518 and 133.143 | 106.029 and 102.109 and 134.35 | 109.055 and 106.007 and 134.452 | 75.4094 and 10.3894 | 0.9902 and -0.5808 | 105.632 | 110.397 and 108.415 and 100.457 | 112.735 and 103.362 and 108.642 | 92.8711 and 101.44 and 100.79 | 111.954 and 107.659 | 78.5183 and 101.652 and 95.7414 | 19.3842 and 49.6264 and 16.1584 | 2.173 and 0.6094 | 162 nM | 103.303 and 29.4843 and 104.802 and 107.771 | 103.551 and 112.425 and 114.204 | proliferation, colorimetric assay [3, 6]: 63.9851 and 109.481 and 101.917; proliferation, colorimetric assay [3, 7]: 12.349 and 96.4027 and 63.939 and 105.862; proliferation, colorimetric assay [3, 8]: 7.628 and 22.9278 and 11.2521 and 38.4511; proliferation, colorimetric assay [3, 9]: 2.92 and 5.376 and 0.7258 and 6.47; proliferation, colorimetric assay [3, 10]: 5.173 and 2.723 and -0.4582 and 0.3438; IC50 ([3]; BaF3, read-out: IC50, growth inhibition): 2.54 nM |
| CO[C@@H]1[C@H](N(C)C(=O)c2ccccc2)C[C@H]2O[C@]1(C)n1c3ccccc3c3c4c(c5c6ccccc6n2c5c31)C(=O)NC4 [Midostaurin] | 91.5686 |  | 100.9 |  |  |  |  |  |  | 103.305 |  |  |  |  |  |  |  |  |  |  | Supplementary Figure 3A - BaF3-ITD+IL3 proliferation [1, 13]: 105.72 and 98.3726 and 124.683; Supplementary Figure 3A - BaF3-ITD+IL3 proliferation [1, 14]: 110.807 and 113.1 and 132.819; Supplementary Figure 3A - BaF3-ITD+IL3 proliferation [1, 15]: 106.186 and 111.038 and 133.216; Supplementary Figure 3A - BaF3-ITD+IL3 proliferation [1, 16]: 110.669 and 139.596; Supplementary Figure 3A - BaF3-ITD+IL3 proliferation [1, 17]: 9.826 and 146.156; Supplementary Figure 3A - BaF3-ITD+IL3 proliferation ([1]; concentration 5000 (unit not given), listed as Midostuarin): 3.94 and -0.5106; proliferation, colorimetric assay [2, 18]: 108.476 and 93.9081; proliferation, colorimetric assay [2, 19]: 108.102 and 98.6805 and 100.719; proliferation, colorimetric assay [2, 13]: 111.763 and 100.839 and 106.043; proliferation, colorimetric assay [2, 14]: 46.6696 and 71.6598 and 33.3064; proliferation, colorimetric assay [2, 15]: 14.4574 and 14.3192 and 6.786; proliferation, colorimetric assay [2, 16]: 11.4376 and 9.499 and 3.744; proliferation, colorimetric assay [2, 17]: 3.105 and 1.155; proliferation, colorimetric assay ([3]; concentration 0.016 (unit not given), listed as Midostuarin): 100.822 and 110.628 and 104.388; proliferation, colorimetric assay [3, 18]: 99.3158 and 113.294 and 110.094 and 38.1922; proliferation, colorimetric assay [3, 19]: 103.096 and 110.499 and 104.386 and 61.929; proliferation, colorimetric assay [3, 13]: 104.186 and 115.142 and 102.467 and 142.341; proliferation, colorimetric assay [3, 14]: 37.6324 and 34.6342 and 45.0183 and 96.6129; proliferation, colorimetric assay [3, 15]: 6.377 and 12.3055 and 3.243 and 9.898; proliferation, colorimetric assay [3, 16]: 0.5457 and 1.807 and -0.6585 and 0.387 |
